Data as given in ChEMBL document CHEMBL1201862, “PubChem BioAssay data set” (2004).
The source made the active and inactive calls.

Columns and labels:
[1] = biological target: T1, Short transient receptor potential channel 4 (Mus musculus, UniProt Q9QUQ5); assay: mouse TRPC4 channel inhibitors, dose response, cell-based, HEK293 TRPC4/mu-opioid, Fluo-4 calcium (AID 434942); type: functional;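 also: potency of inhibitors blocking the TRPC4 calcium response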
T1 sequence (Q9QUQ5 whole entry): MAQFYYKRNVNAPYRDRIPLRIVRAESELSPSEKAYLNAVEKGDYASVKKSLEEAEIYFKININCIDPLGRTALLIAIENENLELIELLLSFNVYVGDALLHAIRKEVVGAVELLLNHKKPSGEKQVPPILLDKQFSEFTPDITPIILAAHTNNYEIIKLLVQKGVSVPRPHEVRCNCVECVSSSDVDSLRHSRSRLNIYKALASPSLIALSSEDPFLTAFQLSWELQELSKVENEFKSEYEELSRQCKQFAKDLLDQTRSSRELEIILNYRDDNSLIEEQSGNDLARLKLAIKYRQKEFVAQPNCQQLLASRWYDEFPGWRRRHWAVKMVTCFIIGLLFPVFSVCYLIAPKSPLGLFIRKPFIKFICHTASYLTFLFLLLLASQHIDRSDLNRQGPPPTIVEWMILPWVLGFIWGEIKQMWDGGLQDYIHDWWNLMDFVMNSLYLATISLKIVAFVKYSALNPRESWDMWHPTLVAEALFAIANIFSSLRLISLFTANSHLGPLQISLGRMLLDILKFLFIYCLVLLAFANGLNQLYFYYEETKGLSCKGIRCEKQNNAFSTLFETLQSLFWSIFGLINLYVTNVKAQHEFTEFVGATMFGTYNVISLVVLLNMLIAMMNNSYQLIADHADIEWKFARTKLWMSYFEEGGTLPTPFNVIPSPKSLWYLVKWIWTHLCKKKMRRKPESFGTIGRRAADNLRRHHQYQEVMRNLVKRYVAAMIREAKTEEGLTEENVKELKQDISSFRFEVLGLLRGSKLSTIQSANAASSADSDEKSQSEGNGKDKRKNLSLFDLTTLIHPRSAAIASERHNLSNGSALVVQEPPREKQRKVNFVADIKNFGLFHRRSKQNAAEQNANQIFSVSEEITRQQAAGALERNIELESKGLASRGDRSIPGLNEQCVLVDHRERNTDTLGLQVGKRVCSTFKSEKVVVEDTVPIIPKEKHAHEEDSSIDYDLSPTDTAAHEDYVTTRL

Fatty acid synthase [2] = biological target: T2, Fatty acid synthase (Homo sapiens, UniProt P49327); assay: FAS thioesterase domain inhibitors, dose response, biochemical, endpoint fluorescence intensity, uHTS hits (AID 624327); type: functional;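 also: fluorescence from hydrolysis of an O-methyl fluorescein acyl ester substrate by the enzyme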
Fatty acid synthase [3] = biological target: T2, Fatty acid synthase; assay: FAS thioesterase domain inhibitors, dose response, biochemical, kinetic fluorescence intensity (AID 624326); type: functional;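 also: rate of fluorescence rise from hydrolysis of a fluorogenic O-methyl fluorescein ester substrate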
HEK293 [4] = assay: NOD1 signaling inhibitors, primary screen, cell-based, luminescence, uHTS (AID 1578); type: functional; conditions: Homo sapiens
HEK293 [5] = assay: cells; type: functional, cell-based; conditions: Homo sapiens
HEK293 [6] = assay: cells; type: functional, cell-based; conditions: Homo sapiens; remark: listed apart in the source
[7] = biological target: Nucleotide-binding oligomerization domain-containing protein 2 (Homo sapiens, UniProt Q9HC29); assay: NOD2 signaling inhibitors, cell-based, luminescence, uHTS, HEK293 (AID 1566); type: functional
HEK293 [8] = assay: NOD2 signaling inhibitors in MDP-stimulated cells, cell-based, uHTS, luminescence (AID 2001); type: functional; conditions: Homo sapiens
HEK293 [9] = assay: cells; type: functional, cell-based; conditions: Homo sapiens; remark: listed apart in the source
[10] = NIH-3T3 fibroblast cytotoxicity, dose response, cytotoxicity control, cell-based, fluorescence, Alamar Blue, secondary assay (AID 2327); type: functional;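 also: NIH-3T3 mouse fibroblasts cultured with fluconazole at 8 µg/mL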
[11] = biological target: T3, Voltage-gated N-type calcium channel alpha-1B subunit/Amyloid beta A4 precursor protein-binding family A member 1 (Homo sapiens, UniProt Q00975+Q02410); type: protein assay
[12] = C. albicans growth with fluconazole, confirmation, fluorescence, retest (AID 2467); type: functional, cell-based
[13] = biological target: T3, Voltage-gated N-type calcium channel alpha-1B subunit/Amyloid beta A4 precursor protein-binding family A member 1; type: protein assay; remark: listed apart in the source
[14] = biological target: Induced myeloid leukemia cell differentiation protein Mcl-1 (Homo sapiens, UniProt Q07820); type: functional
[15] = biological target: T3, Voltage-gated N-type calcium channel alpha-1B subunit/Amyloid beta A4 precursor protein-binding family A member 1; assay: disruptors of Mint-PDZ/N-type channel peptide interaction – biochemical, HTRF, set 2, SAR follow-up (AID 434980); type: functional
[16] = biological target: T3, Voltage-gated N-type calcium channel alpha-1B subunit/Amyloid beta A4 precursor protein-binding family A member 1; assay: disruptors of Mint-PDZ/N-type channel peptide interaction – biochemical, HTRF, SAR follow-up (AID 2489); type: functional
[17] = biological target: T4, Replicative DNA helicase DnaB (Mycobacterium tuberculosis, UniProt P9WMR3); assay: DnaB intein splicing inhibitors, dose response, biochemical, cell-free fluorescence (AID 449749); type: functional
T4 sequence (P9WMR3 whole entry): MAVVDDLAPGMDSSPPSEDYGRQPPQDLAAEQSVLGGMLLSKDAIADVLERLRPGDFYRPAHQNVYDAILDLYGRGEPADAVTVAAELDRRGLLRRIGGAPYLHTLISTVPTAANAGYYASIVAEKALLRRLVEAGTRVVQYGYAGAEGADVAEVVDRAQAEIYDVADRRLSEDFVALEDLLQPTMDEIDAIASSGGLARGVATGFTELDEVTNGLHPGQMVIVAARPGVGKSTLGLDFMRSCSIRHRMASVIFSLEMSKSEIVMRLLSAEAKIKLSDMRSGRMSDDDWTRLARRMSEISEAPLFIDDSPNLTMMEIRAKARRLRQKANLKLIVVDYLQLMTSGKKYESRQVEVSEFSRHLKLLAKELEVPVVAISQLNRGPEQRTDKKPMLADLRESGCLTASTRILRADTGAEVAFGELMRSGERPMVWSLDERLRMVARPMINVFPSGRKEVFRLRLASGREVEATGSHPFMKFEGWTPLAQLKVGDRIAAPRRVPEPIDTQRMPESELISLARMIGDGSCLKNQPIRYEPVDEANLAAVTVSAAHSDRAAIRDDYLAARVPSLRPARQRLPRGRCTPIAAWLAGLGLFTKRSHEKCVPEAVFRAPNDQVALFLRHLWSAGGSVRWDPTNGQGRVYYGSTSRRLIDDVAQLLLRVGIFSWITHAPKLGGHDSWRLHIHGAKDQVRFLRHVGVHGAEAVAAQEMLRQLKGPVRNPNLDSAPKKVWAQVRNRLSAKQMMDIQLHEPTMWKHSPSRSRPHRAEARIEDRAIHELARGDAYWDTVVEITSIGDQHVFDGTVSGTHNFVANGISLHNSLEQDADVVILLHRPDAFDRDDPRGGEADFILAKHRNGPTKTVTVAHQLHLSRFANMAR

Protein RecA = biological target: T5, Protein RecA (Mycobacterium tuberculosis, UniProt P9WHJ3); assay: Fluorescence Cell-Free Homogeneous Dose Retest to Identify Inhibitors of RecA-Intein Splicing Activity. [Related pubchem assays (depositor defined):AID2097, AID2223, AID489010, AID492950]; type: functional
T5 sequence (P9WHJ3 whole entry): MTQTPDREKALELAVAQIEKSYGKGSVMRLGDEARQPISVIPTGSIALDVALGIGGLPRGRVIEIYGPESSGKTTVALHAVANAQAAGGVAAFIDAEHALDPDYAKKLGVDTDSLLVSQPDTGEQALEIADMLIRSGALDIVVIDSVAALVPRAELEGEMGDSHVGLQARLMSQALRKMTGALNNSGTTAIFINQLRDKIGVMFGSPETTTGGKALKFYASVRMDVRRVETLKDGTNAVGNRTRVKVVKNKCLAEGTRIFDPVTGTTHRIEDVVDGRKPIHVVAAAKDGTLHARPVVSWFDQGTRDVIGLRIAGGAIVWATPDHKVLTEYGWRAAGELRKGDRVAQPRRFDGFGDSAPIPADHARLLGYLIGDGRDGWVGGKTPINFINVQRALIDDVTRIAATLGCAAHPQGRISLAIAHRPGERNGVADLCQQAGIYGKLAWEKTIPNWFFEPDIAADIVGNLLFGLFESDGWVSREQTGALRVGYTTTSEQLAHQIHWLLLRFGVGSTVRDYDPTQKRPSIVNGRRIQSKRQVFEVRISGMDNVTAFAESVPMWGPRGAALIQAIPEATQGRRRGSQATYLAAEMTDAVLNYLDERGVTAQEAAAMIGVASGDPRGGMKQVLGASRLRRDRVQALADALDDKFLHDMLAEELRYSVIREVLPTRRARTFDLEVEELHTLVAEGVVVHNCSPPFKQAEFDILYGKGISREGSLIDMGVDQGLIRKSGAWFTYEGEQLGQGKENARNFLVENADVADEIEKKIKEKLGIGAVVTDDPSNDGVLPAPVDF

[18] = biological target: DNA dC->dU-editing enzyme APOBEC-3G (Homo sapiens, UniProt Q9HC16); assay: Dose Response confirmation of small molecule APOBEC3G DNA Deaminase Inhibitors via a fluorescence-based single-stranded DNA deaminase assay. [Related pubchem assays (depositor defined):AID493012, AID493028]; type: functional
[19] = biological target: Neurotensin receptor type 1 (Homo sapiens, UniProt P30989); type: functional;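 also: Image-based confirmatory dose-response assay measuring agonist activity at NTR1; NTR1-expressing U2OS osteosarcoma cells imaged for beta-arrestin GFP spot formation; agonist potency where compounds increase beta-arrestin recruitment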
[20] = inhibitors of HIV Env-driven cell fusion, dose response, cherry-pick (AID 652057); type: functional, cell-based
[21] = CEM21 lymphoblast cell cytotoxicity, dose response, cytotoxicity control for viral fusion inhibitor project, CellTiter-Glo luminescence, cherry-picked (AID 652042); type: functional, cell-based;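 also: potency for signal decrease meaning cytotoxicity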
[22] = inhibitors of clade B AD8 Env fusion, dose response, cell-based, cherry-pick (AID 652062); type: functional;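 also: luciferase signal from cell-cell fusion driven by HIV-1 clade B AD8 Env; potency is for inhibitors of fusion seen as a drop in luminescence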
[23] = biological target: Eukaryotic translation initiation factor 4E (Mus musculus, UniProt P63073); assay: eIF4E–eIF4G protein interaction inhibitors, dose response, biochemical, TR-FRET (AID 855); type: functional;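 also: potency for disrupting eIF4E binding to eIF4GI seen as loss of FRET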
[24] = biological target: Peroxisome proliferator-activated receptor gamma/Nuclear receptor coactivator 1 (Homo sapiens, UniProt P37231); assay: (§1) TR-FRET dose response biochemical High Throughput Screening assay for agonists of the steroid receptor coactivator 1 (SRC-1) recruitment by the peroxisome proliferator-activated receptor gamma (PPAR gamma): non-selective agonists. [Related pubchem assays (depositor defined):AID1300, AID1808, AID504735, AID631]; type: protein assay
[25] = biological target: Peroxisome proliferator-activated receptor gamma/Nuclear receptor coactivator 3 (Homo sapiens, UniProt P37231); assay: as §1, with “3 (SRC-3)” for “1 (SRC-1)”, “assays: 1301 (Confirmation screen.), 1048 (Primary screen.)]” for “assays (depositor defined):AID1300, AID1808, AID504735, AID631]”; type: functional
[26] = biological target: Peroxisome proliferator-activated receptor gamma/Nuclear receptor coactivator 2 (Homo sapiens, UniProt P37231); assay: TR-FRET dose response biochemical High Throughput Screening assay for agonists of the steroid receptor coactivator 2 (SRC-2) recruitment by the peroxisome proliferator-activated receptor gamma (PPAR gamma): non-selective agonists. [Related pubchem assays: 1297, 1032 ]; type: functional
SUMO E1/E2 = SUMO E1/E2 (Homo sapiens, UniProt P63279+Q9UBE0+Q9UBT2); assay: SAR analysis of SUMOylation using HTRF in an in-Vitro dose response assay. [Related pubchem assays (depositor defined):AID2006, AID2011, AID2018, AID2069, AID2658]; type: functional

Chain of Nucleotide-binding oligomerization domain-containing protein 2 (Q9HC29 whole entry, the tested form may be a part): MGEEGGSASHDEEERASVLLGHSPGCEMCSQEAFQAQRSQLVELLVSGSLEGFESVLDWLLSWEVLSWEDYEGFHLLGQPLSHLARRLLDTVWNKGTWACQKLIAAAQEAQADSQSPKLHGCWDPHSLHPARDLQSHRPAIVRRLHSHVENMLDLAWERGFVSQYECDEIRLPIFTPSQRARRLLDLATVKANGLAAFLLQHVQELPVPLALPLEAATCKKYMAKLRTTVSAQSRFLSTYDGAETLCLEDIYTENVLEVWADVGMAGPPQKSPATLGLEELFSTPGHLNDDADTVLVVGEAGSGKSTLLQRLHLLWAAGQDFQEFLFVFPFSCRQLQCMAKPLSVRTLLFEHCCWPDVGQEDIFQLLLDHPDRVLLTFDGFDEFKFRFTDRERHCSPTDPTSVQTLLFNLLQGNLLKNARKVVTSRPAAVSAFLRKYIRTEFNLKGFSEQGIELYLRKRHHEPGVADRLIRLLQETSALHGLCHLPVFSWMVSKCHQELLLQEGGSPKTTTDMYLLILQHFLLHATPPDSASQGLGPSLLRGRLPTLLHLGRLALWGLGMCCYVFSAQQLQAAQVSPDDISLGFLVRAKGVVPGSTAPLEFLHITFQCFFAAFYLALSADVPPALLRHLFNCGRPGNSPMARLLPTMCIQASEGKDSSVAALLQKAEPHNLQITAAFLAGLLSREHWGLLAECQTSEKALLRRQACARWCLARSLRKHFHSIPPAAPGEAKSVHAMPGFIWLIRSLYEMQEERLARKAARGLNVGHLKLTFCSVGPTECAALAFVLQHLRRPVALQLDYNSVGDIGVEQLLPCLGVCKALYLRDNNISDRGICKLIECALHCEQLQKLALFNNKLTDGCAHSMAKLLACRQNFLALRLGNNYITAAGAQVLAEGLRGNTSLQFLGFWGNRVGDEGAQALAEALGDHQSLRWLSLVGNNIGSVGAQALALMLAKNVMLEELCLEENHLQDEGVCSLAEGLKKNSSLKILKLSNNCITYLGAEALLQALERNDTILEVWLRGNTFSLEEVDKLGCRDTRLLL
T3 sequence (Q00975 whole entry): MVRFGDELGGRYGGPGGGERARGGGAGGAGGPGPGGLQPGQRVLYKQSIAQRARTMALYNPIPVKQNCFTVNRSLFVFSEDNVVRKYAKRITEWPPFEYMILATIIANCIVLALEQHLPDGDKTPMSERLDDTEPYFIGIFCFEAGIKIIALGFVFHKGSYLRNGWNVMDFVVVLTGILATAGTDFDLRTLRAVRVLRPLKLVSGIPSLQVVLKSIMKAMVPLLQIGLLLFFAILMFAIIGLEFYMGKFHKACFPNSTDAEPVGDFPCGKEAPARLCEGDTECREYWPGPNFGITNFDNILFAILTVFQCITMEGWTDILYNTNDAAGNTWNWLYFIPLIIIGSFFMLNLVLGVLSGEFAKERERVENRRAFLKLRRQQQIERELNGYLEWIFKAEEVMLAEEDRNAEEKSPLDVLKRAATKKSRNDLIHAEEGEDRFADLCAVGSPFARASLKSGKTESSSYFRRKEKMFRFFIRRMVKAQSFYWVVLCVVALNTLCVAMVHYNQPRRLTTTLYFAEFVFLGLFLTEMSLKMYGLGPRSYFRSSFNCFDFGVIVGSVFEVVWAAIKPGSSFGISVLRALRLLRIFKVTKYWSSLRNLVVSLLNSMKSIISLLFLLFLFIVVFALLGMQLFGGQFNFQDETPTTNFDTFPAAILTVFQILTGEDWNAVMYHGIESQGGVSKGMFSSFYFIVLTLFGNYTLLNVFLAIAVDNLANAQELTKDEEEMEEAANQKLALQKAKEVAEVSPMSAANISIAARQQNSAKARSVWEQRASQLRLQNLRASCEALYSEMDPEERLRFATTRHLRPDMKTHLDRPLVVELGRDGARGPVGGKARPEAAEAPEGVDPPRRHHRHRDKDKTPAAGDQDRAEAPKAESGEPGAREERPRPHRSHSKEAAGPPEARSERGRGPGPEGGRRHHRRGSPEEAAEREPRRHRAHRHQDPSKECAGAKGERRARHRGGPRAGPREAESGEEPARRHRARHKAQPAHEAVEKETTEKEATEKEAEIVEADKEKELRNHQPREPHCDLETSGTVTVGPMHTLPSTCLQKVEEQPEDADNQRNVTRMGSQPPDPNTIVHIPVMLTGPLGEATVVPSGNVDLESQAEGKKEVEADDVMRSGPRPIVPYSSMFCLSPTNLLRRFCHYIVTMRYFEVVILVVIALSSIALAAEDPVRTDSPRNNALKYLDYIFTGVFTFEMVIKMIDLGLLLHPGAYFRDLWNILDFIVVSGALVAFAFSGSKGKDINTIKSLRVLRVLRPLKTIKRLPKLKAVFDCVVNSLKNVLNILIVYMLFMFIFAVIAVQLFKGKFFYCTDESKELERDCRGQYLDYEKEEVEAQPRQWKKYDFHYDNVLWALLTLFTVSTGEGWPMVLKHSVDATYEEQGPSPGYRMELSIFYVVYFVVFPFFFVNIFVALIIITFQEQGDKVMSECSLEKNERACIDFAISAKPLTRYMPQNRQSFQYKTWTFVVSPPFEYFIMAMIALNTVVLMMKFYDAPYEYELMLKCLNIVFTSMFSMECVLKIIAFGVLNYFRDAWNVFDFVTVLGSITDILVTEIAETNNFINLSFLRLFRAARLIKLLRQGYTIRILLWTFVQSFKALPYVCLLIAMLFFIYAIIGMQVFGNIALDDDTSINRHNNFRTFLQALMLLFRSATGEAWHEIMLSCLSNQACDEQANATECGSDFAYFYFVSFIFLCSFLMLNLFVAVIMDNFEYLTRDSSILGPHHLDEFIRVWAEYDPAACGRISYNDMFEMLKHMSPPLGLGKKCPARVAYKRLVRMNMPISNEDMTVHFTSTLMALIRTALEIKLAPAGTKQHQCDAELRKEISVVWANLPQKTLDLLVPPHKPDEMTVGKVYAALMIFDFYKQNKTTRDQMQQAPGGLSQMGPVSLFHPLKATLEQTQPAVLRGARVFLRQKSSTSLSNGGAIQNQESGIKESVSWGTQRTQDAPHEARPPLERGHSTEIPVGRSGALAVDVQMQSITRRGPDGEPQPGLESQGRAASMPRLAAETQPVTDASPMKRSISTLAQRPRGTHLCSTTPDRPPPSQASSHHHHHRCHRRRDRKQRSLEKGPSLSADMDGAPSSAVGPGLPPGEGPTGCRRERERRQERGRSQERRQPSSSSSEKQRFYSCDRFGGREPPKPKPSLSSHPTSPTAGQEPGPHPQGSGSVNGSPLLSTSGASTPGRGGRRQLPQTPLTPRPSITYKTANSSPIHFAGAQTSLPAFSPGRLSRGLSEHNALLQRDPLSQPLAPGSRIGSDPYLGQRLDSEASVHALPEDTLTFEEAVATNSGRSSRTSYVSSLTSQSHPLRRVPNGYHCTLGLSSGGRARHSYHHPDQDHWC
T3 sequence (Q02410 whole entry): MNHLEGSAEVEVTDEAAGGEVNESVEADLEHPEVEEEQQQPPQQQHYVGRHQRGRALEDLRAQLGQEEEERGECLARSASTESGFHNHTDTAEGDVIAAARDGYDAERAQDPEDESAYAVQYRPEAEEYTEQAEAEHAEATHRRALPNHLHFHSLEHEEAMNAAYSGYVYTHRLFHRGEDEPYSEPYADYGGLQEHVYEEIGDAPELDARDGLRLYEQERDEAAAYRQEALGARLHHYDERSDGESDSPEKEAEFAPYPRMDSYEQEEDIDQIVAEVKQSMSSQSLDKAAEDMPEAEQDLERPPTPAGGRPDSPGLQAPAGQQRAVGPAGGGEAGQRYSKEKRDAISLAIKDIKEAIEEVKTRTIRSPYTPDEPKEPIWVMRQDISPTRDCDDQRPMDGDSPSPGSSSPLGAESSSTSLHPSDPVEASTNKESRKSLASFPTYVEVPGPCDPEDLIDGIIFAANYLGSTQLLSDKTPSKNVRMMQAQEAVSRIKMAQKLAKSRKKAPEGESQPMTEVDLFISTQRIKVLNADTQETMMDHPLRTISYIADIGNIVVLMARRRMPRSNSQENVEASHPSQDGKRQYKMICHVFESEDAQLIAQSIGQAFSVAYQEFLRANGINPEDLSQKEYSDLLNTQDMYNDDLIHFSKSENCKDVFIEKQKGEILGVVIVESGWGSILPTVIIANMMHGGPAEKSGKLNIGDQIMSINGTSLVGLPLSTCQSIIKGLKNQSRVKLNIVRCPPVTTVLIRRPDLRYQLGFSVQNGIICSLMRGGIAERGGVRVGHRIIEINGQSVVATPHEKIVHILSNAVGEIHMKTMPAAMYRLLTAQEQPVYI
Chain of Eukaryotic translation initiation factor 4E (P63073 whole entry): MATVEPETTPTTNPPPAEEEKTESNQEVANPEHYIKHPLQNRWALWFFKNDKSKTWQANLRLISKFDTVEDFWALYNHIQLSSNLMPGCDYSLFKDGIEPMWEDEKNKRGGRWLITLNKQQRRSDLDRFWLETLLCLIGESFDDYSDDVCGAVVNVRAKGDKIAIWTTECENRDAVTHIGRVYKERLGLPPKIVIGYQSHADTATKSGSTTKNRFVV
Chain of DNA dC->dU-editing enzyme APOBEC-3G (Q9HC16 whole entry): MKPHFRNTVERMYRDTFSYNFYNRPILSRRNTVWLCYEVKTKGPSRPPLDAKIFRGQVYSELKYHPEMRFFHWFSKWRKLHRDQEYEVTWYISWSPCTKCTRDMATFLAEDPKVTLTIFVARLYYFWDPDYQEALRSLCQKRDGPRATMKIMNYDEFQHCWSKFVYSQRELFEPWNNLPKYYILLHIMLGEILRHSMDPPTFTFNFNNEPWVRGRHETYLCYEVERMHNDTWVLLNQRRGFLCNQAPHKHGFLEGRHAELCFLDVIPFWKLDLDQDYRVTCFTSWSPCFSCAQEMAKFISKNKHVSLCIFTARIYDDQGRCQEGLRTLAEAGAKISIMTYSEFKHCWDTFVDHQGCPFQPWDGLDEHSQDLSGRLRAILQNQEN

| SMILES | EC50 [1] | EC50 (HEK293 [4]) | IC50 (HEK293 [5]) | IC50 (HEK293 [6]) | EC50 [7] | IC50 (HEK293 [8]) | IC50 (HEK293 [9]) | also measured |
| --- | --- | --- | --- | --- | --- | --- | --- | --- |
| O=c1c2ccccc2nc(SCc2ccc([N+](=O)[O-])cc2)n1CCCO | 0.376 µM (active) | – | – | – | – | – | – | IC50 (Fatty acid synthase [2]): 10.2 µM (active); IC50 (Fatty acid synthase [3]): 5.59 µM (active) |
| COc1ccc(C(Nc2ccccn2)c2c(NC(=O)c3ccco3)sc(C)c2C)cc1OC (configuration not stated) | 1.19 µM (active) | – | – | – | – | – | – | – |
| CC1CCc2nc(NC(=O)CSc3nc4ccccc4o3)sc2C1 (configuration not stated) | – | 5.78 µM (active) | 3.36 µM (active) | 15.4 µM (active) | > 20 µM (inactive) | 5.28 µM (active) | > 20 µM (inactive) | – |
| CCCc1ccc(/C=C2\C(=O)c3ccccc3C(O)=C2C(=O)OCC)cc1 | – | – | – | – | – | – | – | EC50 [10]: 56.4 µM (inconclusive); IC50 [11]: 9.62 µM (active); EC50 [12]: > 38 µM (not active); IC50 [13]: 5.12 µM (active); IC50 [14]: 2.32 µM (not active); IC50 [15]: 5.7 µM (active); IC50 [16]: 7.19 µM (active); AC50 [17]: 5.54 µM (active); EC50 (Protein RecA): 8.95 µM (active) |
| O=S(=O)(Cc1ccccc1)N=Nc1c(O)[nH]c2ccc(Br)cc12 | – | – | – | – | – | – | – | IC50 [18]: 44.3 µM (active) |
| CCc1nc2ccccc2c(C(=O)OCC(=O)Nc2cccc(S(=O)(=O)N3CCOCC3)c2)c1C | – | 5.64 µM (active) | 4.01 µM (active) | 9.75 µM (active) | 12.8 µM (active) | 5.81 µM (inactive) | > 20 µM (inactive) | EC50 [19]: 10.2 µM (active); AC50 [20]: 44.6 µM (active); AC50 [21]: 31.5 µM (active); AC50 [22]: 13.9 µM (active) |
| O=C(Nc1cccnc1)c1cc2c(ccc3ccccc32)o1 | – | – | – | – | – | – | – | IC50 [23]: > 64 µM (inactive) |
| O=C(CSc1ncnc2c1oc1ccccc12)N1CCCc2ccccc21 | – | 5.08 µM (active) | 4.86 µM (active) | 9.45 µM (active) | 11.9 µM (active) | 5.25 µM (inactive) | > 20 µM (inactive) | EC50 [24]: > 79.4 µM (inactive); EC50 [25]: > 79.4 µM (not active); EC50 [26]: 85.1 µM (not active) |
| Nc1cc(=O)nc(SCC(=O)N2CCN(c3ccccc3)CC2)n1-c1ccc(F)cc1 | 6.68 µM (active) | – | – | – | – | – | – | – |
| Nc1ccc2c(c1)C1C=CCC1C(c1ccccc1)N2 (configuration not stated) | – | – | – | – | – | – | – | IC50 (SUMO E1/E2): > 100 µM (inactive) |
